Data from US10501466B2, “WDR5 inhibitors and modulators” (Vanderbilt University, priority 2017, dated 2019).

Columns and labels:
WDR5 = WDR5 (Homo sapiens (Human), UniProt P61964); conditions: FPA and TR-FRET binding affinity, WDR5 WIN-site
[1] = tested on: MV4,11 human leukemia cells; experiment: cells; conditions: MV4-11, 168 h
Description: Anti-Proliferative Activity Using MLL-Harboring and Non-MLL Cell Lines.
Viability assays are performed by dispensing 5,000 cells into each well of an opaque 96-well plate and adding compounds at the indicated concentrations in a final volume of 100 μL and a final concentration of DMSO of 0.1% for all samples. After a set incubation period, either a 3 day or 7 day protocol, the viability of cells in each well is assessed using the CellTiter-Glo assay (Promega), read on a GloMax 96 Microplane Luminometer (Promega). Serial dilutions of each cell type are included in all assays to generate standard curves and determine assay measurements are taken within the dynamic range of the instrument. GI50 values are calculated based on three biological replicates, each with three technical replicates. Data are expressed as mean plus/minus S.E.M.

| Structure (SMILES) | Ki (WDR5) | GI50 [1] |
| --- | --- | --- |
| COc1cccc(C(=O)N(CC2CC2)C2CCc3ccc(-c4cn5c(n4)CCC5)cc32)c1 (stereo not drawn) [Example B1, N-(cyclopropylmethyl)-N-(6-(6,7-dihydro-5H-pyrrolo[1,2-a]imidazol-2-yl)-2,3-dihydro-1H-inden-1-yl)-3-methoxybenzamide] | 693 nM |  |
| Cc1ccc(C(=O)NC2CCc3ccc(-c4cn5c(n4)CCC5)cc32)cc1C(F)(F)F (stereo not drawn) [Example B2, N-(6-(6,7-dihydro-5H-pyrrolo[1,2-a]imidazol-2-yl)-2,3-dihydro-1H-inden-1-yl)-4-methyl-3-(trifluoromethyl)benzamide] | 1380 nM |  |
| CCOc1cccc(C(=O)NC2CCc3ccc(-c4cn5c(n4)CCC5)cc32)c1 (stereo not drawn) [Example B4, N-(6-(6,7-dihydro-5H-pyrrolo[1,2-a]imidazol-2-yl)-2,3-dihydro-1H-inden-1-yl)-3-ethoxybenzamide] | 19.1 nM |  |
| COc1cc(C)cc(C(=O)NC2CCc3ccc(-c4cn5c(n4)CCC5)cc32)c1 (stereo not drawn) [Example B5, N-(6-(6,7-dihydro-5H-pyrrolo[1,2-a]imidazol-2-yl)-2,3-dihydro-1H-inden-1-yl)-3-methoxy-5-methylbenzamide] | 27 nM |  |
| CC(=O)N1CCCC(C(=O)NC2CCc3ccc(-c4cn5c(n4)CCC5)cc32)C1 (stereo not drawn) [Example B7, 1-acetyl-N-(6-(6,7-dihydro-5H-pyrrolo[1,2-a]imidazol-2-yl)-2,3-dihydro-1H-inden-1-yl)piperidine-3-carboxamide] | 33 nM |  |
| CCC(=O)N1CCCC(C(=O)NC2CCc3ccc(-c4cn5c(n4)CCC5)cc32)C1 (stereo not drawn) [Example B8, N-(6-(6,7-dihydro-5H-pyrrolo[1,2-a]imidazol-2-yl)-2,3-dihydro-1H-inden-1-yl)-1-propionylpiperidine-3-carboxamide] | 21 nM |  |
| O=C(NC1CCc2ccc(-c3cn4c(n3)CCC4)cc21)C1CCCN(C(=O)CC(F)(F)F)C1 (stereo not drawn) [Example B9, N-(6-(6,7-dihydro-5H-pyrrolo[1,2-a]imidazol-2-yl)-2,3-dihydro-1H-inden-1-yl)-1-(3,3,3-trifluoropropanoyl)piperidine-3-carboxamide] | 90 nM |  |
| CC(C)C(=O)N1CCCC(C(=O)NC2CCc3ccc(-c4cn5c(n4)CCC5)cc32)C1 (stereo not drawn) [Example B10, N-(6-(6,7-dihydro-5H-pyrrolo[1,2-a]imidazol-2-yl)-2,3-dihydro-1H-inden-1-yl)-1-isobutyrylpiperidine-3-carboxamide] | 70.9 nM |  |
| O=C(Cc1ccc(Cl)c(Cl)c1)N[C@@H]1CCc2ccc(-c3cn4c(n3)CCC4)cc21 [Example B11, (R)-2-(3,4-dichlorophenyl)-N-(6-(6,7-dihydro-5H-pyrrolo[1,2-a]imidazol-2-yl)-2,3-dihydro-1H-inden-1-yl)acetamide] |  | 8890 nM |
| COc1cc(C(=O)N[C@@H]2CCc3ccc(-c4cn5c(n4)CCC5)cc32)ccc1C [Example B12, (R)—N-(6-(6,7-dihydro-5H-pyrrolo[1,2-a]imidazol-2-yl)-2,3-dihydro-1H-inden-1-yl)-3-methoxy-4-methylbenzamide] |  | 17200 nM |
| CC(=O)N1CCCC(C(=O)N[C@@H]2CCc3ccc(-c4cn5c(n4)CCC5)cc32)C1 (stereo partly drawn) [Example B13, 1-acetyl-N—((R)-6-(6,7-dihydro-5H-pyrrolo[1,2-a]imidazol-2-yl)-2,3-dihydro-1H-inden-1-yl)piperidine-3-carboxamide] | 17.4 nM |  |
| COc1cc(C(=O)N[C@@H]2CCCc3ccc(-c4cn5c(n4)CCC5)cc32)ccc1C [Example B14, (R)—N-(7-(6,7-dihydro-5H-pyrrolo[1,2-a]imidazol-2-yl)-1,2,3,4-tetrahydronaphthalen-1-yl)-3-methoxy-4-methylbenzamide] |  | 22300 nM |
| O=C(Cc1ccc(Cl)c(F)c1)N[C@@H]1CCc2ccc(-c3cn4c(n3)CCC4)cc21 [Example B15, (R)-2-(4-chloro-3-fluorophenyl)-N-(6-(6,7-dihydro-5H-pyrrolo[1,2-a]imidazol-2-yl)-2,3-dihydro-1H-inden-1-yl)acetamide] | 2.37 nM |  |
| CCC(=O)N1CCCC(C(=O)N[C@@H]2CCc3ccc(-c4cn5c(n4)CCC5)cc32)C1 (stereo partly drawn) [Example B16, N—((R)-6-(6,7-dihydro-5H-pyrrolo[1,2-a]imidazol-2-yl)-2,3-dihydro-1H-inden-1-yl)-1-propionylpiperidine-3-carboxamide] | 7.16 nM |  |
| CC(=O)N1CCCC(C(=O)N[C@@H]2CCCc3ccc(-c4cn5c(n4)CCC5)cc32)C1 (stereo partly drawn) [Example B17, 1-acetyl-N—((R)-7-(6,7-dihydro-5H-pyrrolo[1,2-a]imidazol-2-yl)-1,2,3,4-tetrahydronaphthalen-1-yl)piperidine-3-carboxamide] | 36.2 nM |  |
| CCC(=O)N1CCCC(C(=O)N[C@@H]2CCCc3ccc(-c4cn5c(n4)CCC5)cc32)C1 (stereo partly drawn) [Example B18, N—((R)-7-(6,7-dihydro-5H-pyrrolo[1,2-a]imidazol-2-yl)-1,2,3,4-tetrahydronaphthalen-1-yl)-1-propionylpiperidine-3-carboxamide] | 14.3 nM |  |
| COc1cc(C(=O)N[C@@H]2CCc3ccc(-c4cn5c(n4)CCC5)cc32)cc(OC)c1C [Example B29, (R)—N-(6-(6,7-dihydro-5H-pyrrolo[1,2-a]imidazol-2-yl)-2,3-dihydro-1H-inden-1-yl)-3,5-dimethoxy-4-methylbenzamide] |  | 7250 nM |

Now from value to compound, other results behind:

| Ki (WDR5) | Structure (SMILES) | GI50 [1] |
| --- | --- | --- |
| 172 nM | COc1ccc(C(=O)N[C@@H]2CCc3ccc(-c4cn5c(n4)CCC5)cc32)cn1 [Example B19, (R)—N-(6-(6,7-dihydro-5H-pyrrolo[1,2-a]imidazol-2-yl)-2,3-dihydro-1H-inden-1-yl)-6-methoxynicotinamide] |  |
| 95.6 nM | O=C(N[C@@H]1CCc2ccc(-c3cn4c(n3)CCC4)cc21)c1ccnc(Cl)c1 [Example B20, (R)-2-chloro-N-(6-(6,7-dihydro-5H-pyrrolo[1,2-a]imidazol-2-yl)-2,3-dihydro-1H-inden-1-yl)isonicotinamide] |  |
| 22.9 nM | Cc1cnc(Cl)c(C(=O)N[C@@H]2CCc3ccc(-c4cn5c(n4)CCC5)cc32)c1 [Example B21, (R)-2-chloro-N-(6-(6,7-dihydro-5H-pyrrolo[1,2-a]imidazol-2-yl)-2,3-dihydro-1H-inden-1-yl)-5-methylnicotinamide] |  |
| 426 nM | Cc1cc(C(=O)N[C@@H]2CCc3ccc(-c4cn5c(n4)CCC5)cc32)cc(=O)[nH]1 [Example B22, (R)—N-(6-(6,7-dihydro-5H-pyrrolo[1,2-a]imidazol-2-yl)-2,3-dihydro-1H-inden-1-yl)-6-methyl-2-oxo-1,2-dihydropyridine-4-carboxamide] |  |
| 769 nM | Cc1cc(Cl)nc(C(=O)N[C@@H]2CCc3ccc(-c4cn5c(n4)CCC5)cc32)c1 [Example B23, (R)-6-chloro-N-(6-(6,7-dihydro-5H-pyrrolo[1,2-a]imidazol-2-yl)-2,3-dihydro-1H-inden-1-yl)-4-methylpicolinamide] |  |
| 710 nM | Cc1ccc(C(=O)N[C@@H]2CCc3ccc(-c4cn5c(n4)CCC5)cc32)cc1O [Example B25, (R)—N-(6-(6,7-dihydro-5H-pyrrolo[1,2-a]imidazol-2-yl)-2,3-dihydro-1H-inden-1-yl)-3-hydroxy-4-methylbenzamide] |  |
| 18.5 nM | COc1cncc(C(=O)N[C@@H]2CCc3ccc(-c4cn5c(n4)CCC5)cc32)c1 [Example B26, (R)—N-(6-(6,7-dihydro-5H-pyrrolo[1,2-a]imidazol-2-yl)-2,3-dihydro-1H-inden-1-yl)-5-methoxynicotinamide] |  |
| 730 nM | CC(=O)Nc1cc(C(=O)N[C@@H]2CCc3ccc(-c4cn5c(n4)CCC5)cc32)ccc1C [Example B27, (R)-3-acetamido-N-(6-(6,7-dihydro-5H-pyrrolo[1,2-a]imidazol-2-yl)-2,3-dihydro-1H-inden-1-yl)-4-methylbenzamide] |  |
| 169 nM | Cc1ccc(C(=O)N[C@@H]2CCc3ccc(-c4cn5c(n4)CCC5)cc32)c(Cl)n1 [Example B28, (R)-2-chloro-N-(6-(6,7-dihydro-5H-pyrrolo[1,2-a]imidazol-2-yl)-2,3-dihydro-1H-inden-1-yl)-6-methylnicotinamide] |  |
| 3750 nM | O=C(N[C@@H]1CCc2ccc(-c3cn4c(n3)CCC4)cc21)c1ccncc1F [Example B30, (R)—N-(6-(6,7-dihydro-5H-pyrrolo[1,2-a]imidazol-2-yl)-2,3-dihydro-1H-inden-1-yl)-3-fluoroisonicotinamide] |  |
| 835 nM | O=C(N[C@@H]1CCc2ccc(-c3cn4c(n3)CCC4)cc21)c1ccc(=O)[nH]c1 [Example B31, (R)—N-(6-(6,7-dihydro-5H-pyrrolo[1,2-a]imidazol-2-yl)-2,3-dihydro-1H-inden-1-yl)-6-oxo-1,6-dihydropyridine-3-carboxamide] |  |
| 568 nM | O=C(N[C@@H]1CCc2ccc(-c3cn4c(n3)CCC4)cc21)c1cncc(F)c1 [Example B32, (R)—N-(6-(6,7-dihydro-5H-pyrrolo[1,2-a]imidazol-2-yl)-2,3-dihydro-1H-inden-1-yl)-5-fluoronicotinamide] |  |
| 22.2 nM | COc1cc(C(=O)N[C@@H]2CCN(C(C)=O)c3ccc(-c4cn5c(n4)CCC5)cc32)ccc1C [Example B33, (R)—N-(1-acetyl-6-(6,7-dihydro-5H-pyrrolo[1,2-a]imidazol-2-yl)-1,2,3,4-tetrahydroquinolin-4-yl)-3-methoxy-4-methylbenzamide] |  |
